Key:
[1] = Aerodynamic particle size measurement of mometasone furoate pMDI suspensions (Next Generation impactor); assay type: physicochemical
Description: In general, aerosols with mass median aerodynamic diameters (MMAD) of at least 1 μm but less than 5 μm in size are suitable for effective deep lung deposition for therapeutic effect. Herein, fine particle fraction (FPF) is defined as the percentage of the ex-actuator delivered API having a MMAD of less than 5 μm when tested in vitro. Herein, “ex-actuator” delivered dose is used to describe the amount of API delivered past the actuator of a pMDI. Therefore, an aerosol with a high FPF is typically suitable for deep lung deposition.
(§1) In the following examples, dose consistency was determined by in vitro measurement of single actuation dose content at start, middle and end of pMDI unit life in line with U.S. Pharmacopeia (USP)<601>, using a flow rate of 28.3 L/min and apparatus A. Aerodynamic particle size distribution of the pMDI suspension aerosols was measured at start of unit life in line with U.S. Pharmacopeia (USP)<601> using a Next Generation impactor without pre-separator (apparatus 6) and a flow rate of 30 L/min.
(§2) Suspensions of micronized mometasone furoate in HFA-152a or HFO-1234ze(E) were prepared. A first set of suspensions included no ethanol. A second set of suspensions included 2% ethanol by weight. Each suspension included an amount of mometasone furoate to provide a nominal delivered dose (ex-valve) of 0.5 mg/actuation (10.0 mg/mL) or 1.0 mg/actuation (20.0 mg/mL). Two further suspensions including no ethanol were prepared which included an amount of mometasone furoate to provide a nominal delivered dose (ex-valve) of 2.0 mg/actuation (40.0 mg/mL).
In total, ten suspension pMDI formulations were prepared in triplicate with sufficient fill weight to provide 60 actuations. Each suspension was filled into Kindeva FEP coated canisters, crimped with a Kindeva 50-μL valve. Each pMDI unit was sonicated for at least 10 minutes to disperse the suspended drug and tested with a Kindeva actuator having an exit orifice diameter (EOD) of 0.4 mm or 0.25 mm.
The mass median aerodynamic diameter (MMAD) and fine particle fraction (FPF) of each pMDI unit were measured by Next Generation cascade impaction (N=3) for each pMDI suspension.

[2] = Through life dose consistency of mometasone furoate pMDI suspensions (USP <601>, apparatus A); assay type: physicochemical
Procedure: as §1, §2
In total, ten suspension pMDI formulations were prepared in triplicate with sufficient fill weight to provide 60 actuations. Each suspension was filled into Kindeva FEP coated canisters, crimped with a Kindeva 50-μL valve. Each pMDI unit was sonicated for at least 10 minutes to disperse the suspended drug and tested with a Kindeva actuator having an exit orifice diameter (EOD) of 0.4 mm.
The through-life (TL) dose consistency of each pMDI unit was determined by measuring the mean ex-actuator delivered dose in micrograms of mometasone furoate (N=3) at the start of life (SoL), middle of life (MOL) and end of life (EoL) of the unit.

[3] = nominal ex-valve 0.5 mg/act, HFA-152a/2% EtOH (w/w), actuator exit orifice diameter 0.4 mm
[4] = nominal ex-valve 0.5 mg/act, HFA-152a, actuator exit orifice diameter 0.4 mm
[5] = nominal ex-valve 0.5 mg/act, HFO-1234ze(E)/2% EtOH (w/w), actuator exit orifice diameter 0.25 mm
[6] = nominal ex-valve 0.5 mg/act, HFO-1234ze(E)/2% EtOH (w/w), actuator exit orifice diameter 0.4 mm
[7] = nominal ex-valve 0.5 mg/act, HFO-1234ze(E), actuator exit orifice diameter 0.25 mm
[8] = nominal ex-valve 0.5 mg/act, HFO-1234ze(E), actuator exit orifice diameter 0.4 mm
[9] = nominal ex-valve 1.0 mg/act, HFA-152a/2% EtOH (w/w), actuator exit orifice diameter 0.25 mm
[10] = nominal ex-valve 1.0 mg/act, HFA-152a/2% EtOH (w/w), actuator exit orifice diameter 0.4 mm
[11] = nominal ex-valve 1.0 mg/act, HFA-152a, actuator exit orifice diameter 0.25 mm
[12] = nominal ex-valve 1.0 mg/act, HFA-152a, actuator exit orifice diameter 0.4 mm
[13] = nominal ex-valve 1.0 mg/act, HFO-1234ze(E)/2% EtOH (w/w), actuator exit orifice diameter 0.25 mm
[14] = nominal ex-valve 1.0 mg/act, HFO-1234ze(E)/2% EtOH (w/w), actuator exit orifice diameter 0.4 mm
[15] = nominal ex-valve 1.0 mg/act, HFO-1234ze(E), actuator exit orifice diameter 0.25 mm
[16] = nominal ex-valve 1.0 mg/act, HFO-1234ze(E), actuator exit orifice diameter 0.4 mm
[17] = nominal ex-valve 2.0 mg/act, HFA-152a, actuator exit orifice diameter 0.4 mm
[18] = nominal ex-valve 2.0 mg/act, HFO-1234ze(E), actuator exit orifice diameter 0.4 mm
[19] = nominal ex-valve 0.5 mg/act, HFA-152a
[20] = nominal ex-valve 0.5 mg/act, HFA-152a/2% EtOH (w/w)
[21] = nominal ex-valve 0.5 mg/act, HFO-1234ze(E)
[22] = nominal ex-valve 0.5 mg/act, HFO-1234ze(E)/2% EtOH (w/w)
[23] = nominal ex-valve 1.0 mg/act, HFA-152a
[24] = nominal ex-valve 1.0 mg/act, HFA-152a/2% EtOH (w/w)
[25] = nominal ex-valve 1.0 mg/act, HFO-1234ze(E)
[26] = nominal ex-valve 1.0 mg/act, HFO-1234ze(E)/2% EtOH (w/w)
[27] = nominal ex-valve 2.0 mg/act, HFA-152a
[28] = nominal ex-valve 2.0 mg/act, HFO-1234ze(E)

SMILES: C[C@@H]1C[C@H]2[C@@H]3CCC4=CC(=O)C=C[C@]4(C)[C@@]3(Cl)[C@@H](O)C[C@]2(C)[C@@]1(OC(=O)c1ccco1)C(=O)CCl [mometasone furoate]
- FPF with actuator EOD 0.25 mm compared with EOD 0.4 mm ([1]; 0.5 and 1.0 mg/actuation in HFO-1234ze(E), 1.0 mg/actuation in HFA-152a): consistently greater FPFs
- MMAD values of aerosols, suitability ([1]; HFA-152a or HFO-1234ze(E), with and without ethanol, in-vitro): in an appropriate respirable range
- FPF without ethanol compared with corresponding suspensions with 2% ethanol by weight ([1]; HFA-152a or HFO-1234ze(E), all nominal doses): generally produced greater FPFs
- Mean FPF [1, 3]: 34.0%
- Mean MMAD [1, 3]: 3.55 μm
- Mean FPF [1, 4]: 37.5%
- Mean MMAD [1, 4]: 3.56 μm
- Mean FPF [1, 5]: 55.3%
- Mean MMAD [1, 5]: 3.70 μm
- Mean FPF [1, 6]: 39.0%
- Mean MMAD [1, 6]: 3.70 μm
- Mean FPF [1, 7]: 66.6%
- Mean MMAD [1, 7]: 3.41 μm
- Mean FPF [1, 8]: 49.8%
- Mean MMAD [1, 8]: 3.36 μm
- Mean FPF [1, 9]: 45.3%
- Mean MMAD [1, 9]: 3.91 μm
- Mean FPF [1, 10]: 31.1%
- Mean MMAD [1, 10]: 3.90 μm
- Mean FPF [1, 11]: 49.1%
- Mean MMAD [1, 11]: 3.75 μm
- Mean FPF [1, 12]: 29.4%
- Mean MMAD [1, 12]: 4.13 μm
- Mean FPF [1, 13]: 52.5%
- Mean MMAD [1, 13]: 3.84 μm
- Mean FPF [1, 14]: 31.8%
- Mean MMAD [1, 14]: 4.01 μm
- Mean FPF [1, 15]: 58.8%
- Mean MMAD [1, 15]: 3.61 μm
- Mean FPF [1, 16]: 39.5%
- Mean MMAD [1, 16]: 3.69 μm
- Mean FPF [1, 17]: 19.5%
- Mean MMAD [1, 17]: 5.09 μm
- Mean FPF [1, 18]: 22.5%
- Mean MMAD [1, 18]: 4.87 μm
- FPF and MMAD in HFO-1234ze(E) compared with corresponding suspensions in HFA-152a ([1]; with or without ethanol): consistently produced greater FPFs and generally smaller MMADs
- effect of addition of ethanol on through unit life ex-actuator delivered dose consistency ([2]; 2% ethanol by weight, HFA-152a or HFO-1234ze(E)): did not always substantially improve
- through unit life ex-actuator delivered dose consistency ([2]; HFA-152a or HFO-1234ze(E) with and without 2% ethanol by weight): relatively consistent
- EoL mean delivered dose [2, 19]: 433.2 μg/act
- MoL mean delivered dose [2, 19]: 433.8 μg/act
- SoL mean delivered dose [2, 19]: 457.7 μg/act
- TL mean delivered dose [2, 19]: 441.6 μg/act
- EoL mean delivered dose [2, 20]: 450.9 μg/act
- MoL mean delivered dose [2, 20]: 427.3 μg/act
- SoL mean delivered dose [2, 20]: 408.9 μg/act
- TL mean delivered dose [2, 20]: 429.1 μg/act
- EoL mean delivered dose [2, 21]: 430.8 μg/act
- MoL mean delivered dose [2, 21]: 434.7 μg/act
- SoL mean delivered dose [2, 21]: 457.5 μg/act
- TL mean delivered dose [2, 21]: 441.0 μg/act
- EoL mean delivered dose [2, 22]: 465.7 μg/act
- MoL mean delivered dose [2, 22]: 453.1 μg/act
- SoL mean delivered dose [2, 22]: 433.9 μg/act
- TL mean delivered dose [2, 22]: 450.9 μg/act
- EoL mean delivered dose [2, 23]: 705.6 μg/act
- MoL mean delivered dose [2, 23]: 1018.3 μg/act
- SoL mean delivered dose [2, 23]: 1087.9 μg/act
- TL mean delivered dose [2, 23]: 937.3 μg/act
- EoL mean delivered dose [2, 24]: 759.7 μg/act
- MoL mean delivered dose [2, 24]: 936.3 μg/act
- SoL mean delivered dose [2, 24]: 906.5 μg/act
- TL mean delivered dose [2, 24]: 867.5 μg/act
- EoL mean delivered dose [2, 25]: 934.4 μg/act
- MoL mean delivered dose [2, 25]: 931.9 μg/act
- SoL mean delivered dose [2, 25]: 752.4 μg/act
- TL mean delivered dose [2, 25]: 855.3 μg/act
- EoL mean delivered dose [2, 26]: 848.1 μg/act
- MoL mean delivered dose [2, 26]: 1003.4 μg/act
- SoL mean delivered dose [2, 26]: 852.6 μg/act
- TL mean delivered dose [2, 26]: 901.4 μg/act
- EoL mean delivered dose [2, 27]: 1613.8 μg/act
- MoL mean delivered dose [2, 27]: 1771.5 μg/act
- SoL mean delivered dose [2, 27]: 1815.1 μg/act
- TL mean delivered dose [2, 27]: 1733.4 μg/act
- EoL mean delivered dose [2, 28]: 1837.0 μg/act
- MoL mean delivered dose [2, 28]: 1725.9 μg/act
- SoL mean delivered dose [2, 28]: 1755.0 μg/act
- TL mean delivered dose [2, 28]: 1772.6 μg/act
